# Experimental data from patent EP0687685A1, “PHYSIOLOGICALLY ACTIVE PEPTIDE” (TEIJIN LIMITED, priority 1993, dated 1994).
# Positions of bridges follow the written chain, without caps; N, C: chain ends. Residues, ends and D or L forms follow the SMILES beside them. *: point of attachment. Mob = COc1ccc(C*)cc1
# Experiments:
# [1] = target: T1, human type II PLA₂ (Homo sapiens, UniProt P14555); test: Inhibition of binding between heparin and human II-type PLA₂ (heparin-bound plate, biotinated PLA₂)
# T1 construct: made in house; host or cells: Sf9 insect cells, baculovirus (AcNPV), vector pAcTJI1; purified from culture supernatant
# T1 sequence (P14555 21-144): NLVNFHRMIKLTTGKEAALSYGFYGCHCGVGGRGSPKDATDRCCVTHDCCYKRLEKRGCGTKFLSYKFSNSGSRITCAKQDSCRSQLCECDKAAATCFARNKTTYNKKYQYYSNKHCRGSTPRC
# Protocol: 500 µg of human type II (non-pancreatic) purified in Reference Example 1 was reacted with 2 ml of a solution of 5 mM sulfosuccinyl 6-(biotinamide hexose) in 0.1M NaHCO₃ at a room temperature for one hour, and the product was purified by a heparin Sepharose column to obtain biotinated human type II PLA₂.
# 50 µl of a phosphate buffered saline (PBS) containing 50 µg/ml poly-L-lysine was added to each well of a 96-well ELISA plate, and after incubation at room temperature for an hour, each well was twice washed with PBS, 50 µl of PBS solution containing 20 µg/ml heparin was added to each well, and a reaction was further carried out at a room temperature for an hour. Each well was twice washed with PBS, 200 µl of PBS solution containing 30 mg/ml bovine serum albumin (BSA) was added to each well, and after reaction at 37°C for an hour, the plate was stored at 4°C.
# To each well of a peparin-bound plate prepared in Reference Example 3, 50 µl of a solution containing a peptide obtained in Examples 1 to 10 was added. After incubating at room temperature for 45 minutes, 50 µg/ml biotinated human II-type PLA₂ obtained in Example 2 was added thereon, and reaction was further carried out at room temperature for an hour. Each well was washed three times with PBS containing 0.05% Tween 20, 50 µl of a 3% BSA/PBS solution containing alkaline phosphatase-conjugated streptoavidin (Taga, ×2000 dilution) was added thereon, and a reaction was carried out at a room temperature for an hour. Each well was washed three times with PBS containing 0.05% Tween 20, 100 µl of a 1 mM p-nitrophenylphosphate/1M ethanolamine aqueous solution (pH 9.8) was added thereon, and a reaction was carried out at room temperature for an hour. Absorption of reaction mixture was measured at 405 nm using a microplate reader (Molecular Device Inc). A result is shown in Fig. 9, and IC₅₀ (µM) was also obtained.
# [2] = target: T1, human type II PLA₂; test: Enzyme inhibition of human type II PLA₂ in the presence of heparin, radiolabeled synthetic phospholipid (method of Dole); assay type: biochemical
Structure (SMILES),inhibitory activity to binding of human type II PLA₂ to heparin [1],inhibitory activity to type II PLA₂ enzyme ([2]; in the presence of heparin),"inhibition at 1 µg/mL ([2]; peptide 1 µg/ml, heparin 50 µg/ml, PLA₂ enzyme 200 ng/ml) [%]","remaining activity at 1 µg/mL ([2]; peptide 1 µg/ml, heparin 50 µg/ml, PLA₂ enzyme 200 ng/ml, read-out: PLA₂enzyme activity (%)) [%]","inhibition at 5 µg/mL ([2]; peptide 5 µg/ml, heparin 50 µg/ml, PLA₂ enzyme 200 ng/ml) [%]","remaining activity at 5 µg/mL ([2]; peptide 5 µg/ml, heparin 50 µg/ml, PLA₂ enzyme 200 ng/ml, read-out: PLA₂enzyme activity (%)) [%]","inhibition at 10 µg/mL ([2]; peptide 10 µg/ml, heparin 50 µg/ml, PLA₂ enzyme 200 ng/ml) [%]","remaining activity at 10 µg/mL ([2]; peptide 10 µg/ml, heparin 50 µg/ml, PLA₂ enzyme 200 ng/ml, read-out: PLA₂enzyme activity (%)) [%]","inhibition at 50 µg/mL ([2]; peptide 50 µg/ml, heparin 50 µg/ml, PLA₂ enzyme 200 ng/ml) [%]","remaining activity at 50 µg/mL ([2]; peptide 50 µg/ml, heparin 50 µg/ml, PLA₂ enzyme 200 ng/ml, read-out: PLA₂enzyme activity (%)) [%]","inhibition at 100 µg/mL ([2]; peptide 100 µg/ml, heparin 50 µg/ml, PLA₂ enzyme 200 ng/ml) [%]","remaining activity at 100 µg/mL ([2]; peptide 100 µg/ml, heparin 50 µg/ml, PLA₂ enzyme 200 ng/ml, read-out: PLA₂enzyme activity (%)) [%]"
COc1ccc(CSC[C@H](NC(=O)CNC(=O)[C@H](CCCNC(=N)N)NC(=O)[C@@H](N)CCCCN)C(=O)NCC(=O)N[C@H](C(=O)N[C@@H](CCCCN)C(=O)N[C@@H](Cc2ccccc2)C(=O)N[C@@H](CC(C)C)C(=O)N[C@@H](CO)C(=O)N[C@@H](Cc2ccc(O)cc2)C(=O)N[C@@H](CCCCN)C(=O)N[C@@H](Cc2ccccc2)C(=O)N[C@@H](CO)C(=O)N[C@@H](CS)C(=O)O)[C@@H](C)O)cc1 [Peptide (6)] (H-KRGC(Mob)GTKFLSYKFSC-OH; N-terminus and C-terminus assumed),strong inhibitory activity,,,,,,,,,,,
CC(C)C[C@@H]1NC(=O)[C@H](Cc2ccccc2)NC(=O)[C@H](CCCCN)NC(=O)[C@H]([C@@H](C)O)NC(=O)CNC(=O)[C@@H](NC(=O)CNC(=O)[C@H](CCCNC(=N)N)NC(=O)[C@@H](N)CCCCN)CSSC[C@@H](C(=O)O)NC(=O)[C@H](CO)NC(=O)[C@H](Cc2ccccc2)NC(=O)[C@H](CCCCN)NC(=O)[C@H](Cc2ccc(O)cc2)NC(=O)[C@H](CO)NC1=O [Peptide (20)] (H-KRGCGTKFLSYKFSC-OH; disulfide 4-15 (inferred); N-terminus and C-terminus assumed),strong inhibitory activity,inhibitory activity,10,90,59,41,72,28,82,18,90,10
